These results are taken from ChEMBL document CHEMBL5291721, “A preclinical secondary pharmacology resource illuminates target-adverse drug reaction associations of marketed drugs” (Nat Commun, 2023).

The target of experiment [1] is T1, Alpha-1A adrenergic receptor (Homo sapiens, UniProt P35348).
T1 sequence (P35348 whole entry): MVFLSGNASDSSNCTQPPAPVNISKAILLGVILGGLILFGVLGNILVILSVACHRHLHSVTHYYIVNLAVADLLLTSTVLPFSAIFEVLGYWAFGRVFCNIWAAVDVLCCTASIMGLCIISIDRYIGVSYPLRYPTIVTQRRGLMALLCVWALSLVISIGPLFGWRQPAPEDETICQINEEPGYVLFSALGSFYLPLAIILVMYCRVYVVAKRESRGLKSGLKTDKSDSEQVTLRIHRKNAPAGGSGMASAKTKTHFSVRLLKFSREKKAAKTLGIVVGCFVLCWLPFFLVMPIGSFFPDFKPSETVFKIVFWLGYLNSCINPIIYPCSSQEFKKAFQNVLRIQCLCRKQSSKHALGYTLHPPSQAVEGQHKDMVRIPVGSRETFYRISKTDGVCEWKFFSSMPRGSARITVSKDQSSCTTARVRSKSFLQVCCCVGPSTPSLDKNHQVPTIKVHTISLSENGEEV

Experiment [2] addresses T2, Alpha-2A adrenergic receptor (Homo sapiens, UniProt P08913).
T2 sequence (P08913 whole entry): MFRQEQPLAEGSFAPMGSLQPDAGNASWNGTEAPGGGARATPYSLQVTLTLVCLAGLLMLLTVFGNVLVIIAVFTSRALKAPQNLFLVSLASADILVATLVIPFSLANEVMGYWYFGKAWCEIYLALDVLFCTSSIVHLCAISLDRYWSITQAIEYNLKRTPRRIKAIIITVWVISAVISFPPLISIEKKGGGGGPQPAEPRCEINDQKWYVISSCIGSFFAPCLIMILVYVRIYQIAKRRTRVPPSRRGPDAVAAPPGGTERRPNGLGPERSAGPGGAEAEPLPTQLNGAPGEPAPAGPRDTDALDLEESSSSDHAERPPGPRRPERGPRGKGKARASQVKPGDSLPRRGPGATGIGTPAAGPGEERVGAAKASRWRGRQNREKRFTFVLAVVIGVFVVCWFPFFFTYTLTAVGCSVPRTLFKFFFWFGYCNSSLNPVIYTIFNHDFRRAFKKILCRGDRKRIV
Type of experiment: functional, cell-based.

The target in experiment [3] is T3, B2 bradykinin receptor (Homo sapiens, UniProt P30411).
T3 sequence (P30411 whole entry): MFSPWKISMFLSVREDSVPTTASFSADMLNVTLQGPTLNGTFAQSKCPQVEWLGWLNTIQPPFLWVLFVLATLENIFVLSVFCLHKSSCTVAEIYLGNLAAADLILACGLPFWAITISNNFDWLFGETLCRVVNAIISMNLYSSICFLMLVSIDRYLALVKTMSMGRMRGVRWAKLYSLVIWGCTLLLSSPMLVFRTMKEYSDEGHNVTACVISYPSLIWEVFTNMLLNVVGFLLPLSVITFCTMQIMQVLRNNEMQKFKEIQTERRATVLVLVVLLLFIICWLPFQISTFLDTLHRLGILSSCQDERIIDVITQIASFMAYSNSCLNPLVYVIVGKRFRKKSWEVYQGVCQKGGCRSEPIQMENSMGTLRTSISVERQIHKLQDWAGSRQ

The target in experiment [4] is Cannabinoid receptor 1 (Homo sapiens, UniProt P21554).
Sequence of Cannabinoid receptor 1 (P21554 whole entry): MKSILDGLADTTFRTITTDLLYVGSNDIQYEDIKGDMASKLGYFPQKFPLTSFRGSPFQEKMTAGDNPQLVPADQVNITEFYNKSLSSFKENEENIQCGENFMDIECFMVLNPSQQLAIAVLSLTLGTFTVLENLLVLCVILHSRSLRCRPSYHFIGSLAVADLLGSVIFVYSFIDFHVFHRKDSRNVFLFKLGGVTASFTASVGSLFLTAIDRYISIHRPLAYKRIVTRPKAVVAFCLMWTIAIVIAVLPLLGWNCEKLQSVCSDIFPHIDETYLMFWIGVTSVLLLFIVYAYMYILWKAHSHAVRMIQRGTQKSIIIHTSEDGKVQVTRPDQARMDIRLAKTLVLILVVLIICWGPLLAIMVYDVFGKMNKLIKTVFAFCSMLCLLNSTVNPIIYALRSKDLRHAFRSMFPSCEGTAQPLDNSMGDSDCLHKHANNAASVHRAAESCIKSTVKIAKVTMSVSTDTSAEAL
In experiment [5] the target is 5-hydroxytryptamine receptor 2B (Homo sapiens, UniProt P41595). In kind it is functional, cell-based.
Sequence of 5-hydroxytryptamine receptor 2B (P41595 whole entry): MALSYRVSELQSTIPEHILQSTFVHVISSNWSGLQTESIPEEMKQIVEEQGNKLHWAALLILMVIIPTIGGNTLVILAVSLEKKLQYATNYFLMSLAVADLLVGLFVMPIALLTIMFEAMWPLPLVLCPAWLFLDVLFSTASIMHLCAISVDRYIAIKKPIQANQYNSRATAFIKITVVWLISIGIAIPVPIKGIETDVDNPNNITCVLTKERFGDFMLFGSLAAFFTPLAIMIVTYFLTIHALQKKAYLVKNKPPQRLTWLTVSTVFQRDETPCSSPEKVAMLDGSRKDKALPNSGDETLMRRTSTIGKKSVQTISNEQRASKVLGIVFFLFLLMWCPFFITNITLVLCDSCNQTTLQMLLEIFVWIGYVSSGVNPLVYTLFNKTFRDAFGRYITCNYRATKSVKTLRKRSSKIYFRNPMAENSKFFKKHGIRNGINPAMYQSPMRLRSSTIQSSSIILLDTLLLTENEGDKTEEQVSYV
Experiment [6] addresses Melanocortin receptor 4 (Homo sapiens, UniProt P32245).
In experiment [7] the target is Kappa-type opioid receptor (Homo sapiens, UniProt P41145).
Sequence of Kappa-type opioid receptor (P41145 whole entry): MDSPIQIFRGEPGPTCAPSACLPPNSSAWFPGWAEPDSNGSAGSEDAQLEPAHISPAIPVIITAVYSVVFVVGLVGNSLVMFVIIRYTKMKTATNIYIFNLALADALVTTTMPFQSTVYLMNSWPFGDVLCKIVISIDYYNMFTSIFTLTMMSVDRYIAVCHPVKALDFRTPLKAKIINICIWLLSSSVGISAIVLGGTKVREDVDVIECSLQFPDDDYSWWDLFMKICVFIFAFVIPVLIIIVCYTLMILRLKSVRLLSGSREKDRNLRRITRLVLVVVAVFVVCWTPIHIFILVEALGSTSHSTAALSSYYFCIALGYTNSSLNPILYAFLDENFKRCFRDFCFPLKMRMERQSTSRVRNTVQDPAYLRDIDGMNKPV
In experiment [8] the target is T4, Thromboxane A2 receptor (Homo sapiens, UniProt P21731).
T4 sequence (P21731 whole entry): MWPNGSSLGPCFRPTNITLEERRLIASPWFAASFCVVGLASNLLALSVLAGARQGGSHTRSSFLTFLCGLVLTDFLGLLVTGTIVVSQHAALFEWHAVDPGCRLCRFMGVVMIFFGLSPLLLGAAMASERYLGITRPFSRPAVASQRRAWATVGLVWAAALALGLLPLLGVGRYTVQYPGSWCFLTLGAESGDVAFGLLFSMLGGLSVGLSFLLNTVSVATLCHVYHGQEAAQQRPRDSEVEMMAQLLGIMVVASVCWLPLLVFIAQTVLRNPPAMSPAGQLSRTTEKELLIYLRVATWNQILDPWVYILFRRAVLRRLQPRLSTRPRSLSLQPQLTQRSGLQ

Experiment [9] deals with Mu-type opioid receptor (Homo sapiens, UniProt P35372).
Sequence of Mu-type opioid receptor (P35372 whole entry): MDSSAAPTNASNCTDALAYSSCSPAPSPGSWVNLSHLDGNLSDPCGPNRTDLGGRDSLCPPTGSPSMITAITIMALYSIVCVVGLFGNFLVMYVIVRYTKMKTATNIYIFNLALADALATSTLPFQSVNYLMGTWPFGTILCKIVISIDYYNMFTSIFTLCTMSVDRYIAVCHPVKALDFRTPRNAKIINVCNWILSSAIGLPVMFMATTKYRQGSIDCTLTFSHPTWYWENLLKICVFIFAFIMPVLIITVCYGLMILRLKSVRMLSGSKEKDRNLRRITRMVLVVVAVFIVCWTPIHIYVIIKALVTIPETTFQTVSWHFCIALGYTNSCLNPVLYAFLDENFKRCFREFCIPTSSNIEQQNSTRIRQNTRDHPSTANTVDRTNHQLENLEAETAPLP
The target in experiment [10] is T1, Alpha-1A adrenergic receptor. Type of experiment: functional, cell-based.
Further: assay procedure not described here.

Sequence of Melanocortin receptor 4 (P32245 whole entry): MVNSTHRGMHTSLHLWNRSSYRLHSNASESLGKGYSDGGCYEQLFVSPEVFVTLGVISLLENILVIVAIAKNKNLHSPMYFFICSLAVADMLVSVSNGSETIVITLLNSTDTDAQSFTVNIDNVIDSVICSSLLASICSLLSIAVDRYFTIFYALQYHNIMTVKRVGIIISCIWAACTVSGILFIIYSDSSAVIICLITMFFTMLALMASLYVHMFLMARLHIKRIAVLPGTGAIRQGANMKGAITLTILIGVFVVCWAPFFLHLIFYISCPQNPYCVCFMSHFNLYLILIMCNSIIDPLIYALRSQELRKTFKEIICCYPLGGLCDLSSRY

Turning to `NCC[C@H](O)C(=O)N[C@@H]1C[C@H](N)[C@@H](O[C@H]2O[C@H](CN)[C@@H](O)[C@H](O)[C@H]2O)[C@H](O)[C@H]1O[C@H]1O[C@H](CO)[C@@H](O)[C@H](N)[C@H]1O` [AMIKACIN], the AC50 in experiment [1], in experiment [2], in experiment [3], in [4], in [5] and in [6] was above 10 µM in each case. Further, the half-maximal activity concentration (AC50) in experiment [7] was above 10 µM; in [8], above 10 µM; in [9], above 30 µM.

Take `O=C(O)CCCCCCCC(=O)O` [AZELAIC ACID]: the AC50 in experiment [1] is above 30 µM; in [2], above 10 µM; in experiment [3] it was above 10 µM; in experiment [4], above 10 µM; in [5] it was above 10 µM; in experiment [6] it was above 10 µM. Besides, the figures for the AC50 in [7], in experiment [8] and in [9] were above 10 µM, above 10 µM and above 30 µM, respectively.

As for `CC(C[N+](C)(C)C)OC(N)=O` (stereo unspecified) [BETHANECHOL], the AC50 in experiment [1], in experiment [2], in [3], in [4], in experiment [5] and in [6] was above 10 µM throughout. In addition, the AC50 in [7] was above 10 µM; in experiment [8] it was above 10 µM; in experiment [9], above 30 µM.

In the case of `O=C(O)C1=C(CSc2nnnn2CS(=O)(=O)O)CS[C@@H]2[C@H](NC(=O)[C@H](O)c3ccccc3)C(=O)N12` [CEFONICID], the concentration at half-maximal activity (AC50) in [1], in experiment [2], in experiment [3], in experiment [4], in experiment [5] and in experiment [6] was above 30 µM each time. Also, the AC50 in experiment [7], in experiment [8] and in experiment [10] was above 30 µM throughout.

Regarding `C[C@]1(O)CC[C@H]2[C@@H]3CCC4=CC(=O)CC[C@]4(C)[C@@]3(F)[C@@H](O)C[C@@]21C` [FLUOXYMESTERONE], the AC50 in [1] was above 30 µM; in experiment [2], above 10 µM; in [3], above 10 µM; in [4] it was above 10 µM; in experiment [5] it was above 10 µM; in [6], above 10 µM. Also, the half-maximal activity concentration (AC50) was above 10 µM in experiment [7], above 10 µM in experiment [8] and above 30 µM in [9].

With `Cc1ccc(S(=O)(=O)NC(=O)NN2CC3CCCC3C2)cc1` (stereo unspecified) [GLICLAZIDE], the concentration at half-maximal activity (AC50) is above 30 µM in [1]; above 10 µM in [2]; above 10 µM in experiment [3]; above 10 µM in experiment [4]; above 10 µM in experiment [5]; above 10 µM in experiment [6]. The AC50 is above 10 µM in experiment [7], above 10 µM in [8] and above 30 µM in [9].

For `CCCC(=O)O[C@]1(C(=O)CO)CC[C@H]2[C@@H]3CCC4=CC(=O)CC[C@]4(C)[C@H]3[C@@H](O)C[C@@]21C` [HYDROCORTISONE BUTYRATE], the half-maximal activity concentration (AC50) in [1], in experiment [2], in experiment [3], in [4], in experiment [5] and in experiment [6] was above 10 µM throughout. Besides, the AC50 in [7] is above 10 µM; in experiment [8], above 10 µM; in experiment [9], above 30 µM.

Take `CC(C)Cn1cnc2c(N)nc3ccccc3c21` [IMIQUIMOD]: the AC50 in [1] was 5.67 µM; in [2], above 10 µM; in experiment [3], above 10 µM; in [4], above 10 µM; in experiment [5] it was 19 µM; in [6] it was above 10 µM. Moreover, the AC50 is above 10 µM in [7], above 30 µM in [8] and above 30 µM in experiment [9].

As to `CO[C@@H]1[C@@H](O[C@@H]2O[C@H](C)[C@@H](O[C@H]3C[C@@](C)(O)[C@@H](OC(=O)CC(C)C)[C@H](C)O3)[C@H](N(C)C)[C@H]2O)[C@@H](CC=O)C[C@@H](C)[C@@H](O)/C=C/C=C/C[C@@H](C)OC(=O)C[C@H]1OC(C)=O` [JOSAMYCIN], the AC50 in [2], in [3], in experiment [4], in experiment [5], in experiment [6] and in experiment [7] was above 10 µM each time. Further, the AC50 in experiment [8] was above 10 µM; in experiment [9], above 30 µM.

On to `COC(=O)C1=C(C)NC(C)=C(C(=O)OC(C)(C)CN(C)CCC(c2ccccc2)c2ccccc2)C1c1cccc([N+](=O)[O-])c1` (stereo unspecified) [LERCANIDIPINE], for which the AC50 was 5.7 µM in [1]; above 30 µM in experiment [2]; above 30 µM in [3]; 6.6 µM in [4]; above 30 µM in [5]; above 30 µM in experiment [6]. The concentration at half-maximal activity (AC50) in experiment [7] is 3.8 µM; in [8] it was above 30 µM.

Consider `Cc1cccc(C(C)c2cnc[nH]2)c1C` (stereo unspecified) [MEDETOMIDINE], for which the AC50 in [1] is 0.11 µM; in [3], above 30 µM; in experiment [4] it was above 30 µM; in [5], above 30 µM; in experiment [6] it was above 30 µM; in experiment [7], above 30 µM. Also, the AC50 in experiment [8] and in experiment [9] was above 30 µM each time.

With `C[C@](N)(Cc1ccc(O)c(O)c1)C(=O)O` [METHYLDOPA], the AC50 is 7.1 µM in experiment [1]; above 10 µM in experiment [2]; above 10 µM in experiment [3]; above 10 µM in experiment [4]; above 10 µM in experiment [5]; above 10 µM in [6]. The AC50 in [7] is above 10 µM; in experiment [8], above 10 µM; in experiment [9], above 30 µM.

As for `O=C(O)[C@H](CC(=O)N1C[C@H]2CCCC[C@H]2C1)Cc1ccccc1` [MITIGLINIDE], the AC50 in experiment [1], in experiment [2], in experiment [3], in experiment [4], in experiment [5] and in [6] was above 10 µM each time. For the same molecule, the AC50 in [7] is above 10 µM; in experiment [8] it was above 10 µM; in [9], above 30 µM.

Consider `O=C(NCCN1CCOCC1)c1ccc(Cl)cc1` [MOCLOBEMIDE], for which the AC50 in experiment [1], in [2], in experiment [3], in [4], in experiment [5] and in experiment [6] was above 10 µM throughout. Moreover, the AC50 in [7] is above 10 µM; in [8], above 10 µM; in [9] it was above 30 µM.

On to `COC(=O)[C@H]1[C@H]2C[C@@H]3c4[nH]c5cc(OC)ccc5c4CCN3C[C@H]2C[C@@H](OC(=O)/C=C/c2cc(OC)c(OC)c(OC)c2)[C@@H]1OC` [RESCINNAMINE], for which the AC50 in experiment [2] is above 10 µM; in experiment [3] it was above 10 µM; in experiment [4], above 10 µM; in experiment [5], above 10 µM; in experiment [6] it was above 10 µM; in experiment [7], above 30 µM. Besides, the AC50 in [8] and in experiment [9] was above 10 µM in each case.
